# According to patent US20150133431A1, “GGA DERIVATIVES” (COYOTE PHARMACEUTICALS, INC., priority 2013, published 2015):
# Assays:
# [1] = in certain situations; Katsuno et al., PNAS 2003; cited from earlier work
# cells = test: cytoprotective effects on cells, GGA isomers; type: cell-based
# Experimental: The isolated cis- and trans-compounds described herein are also useful in assays which access a compound having putative cytoprotective effects. In particular, in such assays, the cis-isomer of GGA will behave as baseline or negative control and the trans-isomer as a positive control. The putative compound is tested in the assay described variously herein and its activity correlated against the cis- and trans-isomers. […] Accordingly, the cis-isomer finds utility as a negative control in the assay.
smiles,measurement,setting,value
"CC(=O)CC/C=C(\C)CC/C=C(\C)CC/C=C(\C)CCC=C(C)C [GGA, Geranylgeranyl acetone]",concentration of GGA required to exert a cytoprotective effect,[1],more than 600 mg per kg per day
"CC(=O)CC/C=C(\C)CC/C=C(\C)CC/C=C(\C)CCC=C(C)C [trans-isomer of GGA, 5E,9E,13E-Geranylgeranyl acetone]",cytoprotective efficacy compared with 1:2 to 1:3 cis:trans mixture of GGA and cis-isomer alone,cells; comparison of isomers,more efficacious at lower concentrations
"CC(=O)CC/C=C(/C)CC/C=C(\C)CC/C=C(\C)CCC=C(C)C [cis-isomer, 5Z,9E,13E-Geranylgeranyl acetone]",effect of increasing amounts of cis-isomer on activity of trans-isomer,cells; increasing amounts of the cis-isomer,antagonize the activity of the trans-isomer
